According to ChEMBL document CHEMBL3885881, “DrugMatrix”:

Organism: Rattus norvegicus
Assay: DrugMatrix - Regimen: Daily Repeat
Format: toxicity, organism-based, Sprague-Dawley
Design: regimen Daily Repeat, gender Male, age 6-8 weeks
Conditions: in vivo, po, route oral GAVAGE, vehicle .5 % CMC; for ABSOLUTE BASOPHIL / ABSOLUTE EOSINOPHIL / ABSOLUTE LYMPHOCYTE / ABSOLUTE MONOCYTE / ABSOLUTE SEGMENTED NEUTROPHIL / BASOPHIL / EOSINOPHIL / ERYTHROCYTE COUNT / HEMATOCRIT / HEMOGLOBIN / LEUKOCYTE COUNT / LYMPHOCYTE / MEAN CORPUSCULAR HEMOGLOBIN / MEAN CORPUSCULAR HEMOGLOBIN CONCENTRATION / MEAN CORPUSCULAR VOLUME / MONOCYTE / NEUTROPHIL / NUCLEATED RED BLOOD CELLS / PLATELET COUNT: tissue Blood; for ALANINE AMINOTRANSFERASE / ALBUMIN / ALKALINE PHOSPHATASE / ASPARTATE AMINOTRANSFERASE / BLOOD UREA NITROGEN / CARBON DIOXIDE / CHLORIDE / CHOLESTEROL / CREATINE PHOSPHOKINASE / CREATININE / GLUCOSE / LACTATE DEHYDROGENASE / LIPASE / PHOSPHORUS / POTASSIUM / SODIUM / TOTAL BILIRUBIN / TOTAL PROTEIN / URIC ACID: tissue Plasma
[1] = 0 mg/kg, 72 h, dose level Control, time 3 day
[2] = 0 mg/kg, 120 h, dose level Control, time 5 day
[3] = 100 mg/kg, 72 h, dose level Low, time 3 day

In the case of `CCc1ccc(C(=O)C(C)CN2CCCCC2)cc1` (centres undefined) [EPERISONE], the “ABSOLUTE BASOPHIL” value [1] is reported as 0 CELLS/uL, the “ABSOLUTE EOSINOPHIL” value [1] is reported as 284.5 CELLS/uL and the “ABSOLUTE LYMPHOCYTE” value [1] is reported as 11670.5 CELLS/uL. For the same molecule, the “ABSOLUTE MONOCYTE” value [1] was 420.83 CELLS/uL, the “ABSOLUTE SEGMENTED NEUTROPHIL” value [1] was 1024.17 CELLS/uL and the BASOPHIL [1] was 0%. For the same molecule, the EOSINOPHIL [1] was 1.67%, the “ERYTHROCYTE COUNT” value [1] was 5.38 x10E6/uL and the HEMATOCRIT [1] was 34.05%. The HEMOGLOBIN [1] was 12.75 G/DL, the “LEUKOCYTE COUNT” value [1] was 13.4 x10E3/uL and the LYMPHOCYTE [1] was 88.33%. For the same molecule, the “MEAN CORPUSCULAR HEMOGLOBIN” value [1] was 23.73 pg, the “MEAN CORPUSCULAR HEMOGLOBIN CONCENTRATION” value [1] was 37.43 G/DL and the “MEAN CORPUSCULAR VOLUME” value [1] was 63.4 fL. For the same molecule, the MONOCYTE [1] was 2.83%, the NEUTROPHIL [1] was 7.17% and the “NUCLEATED RED BLOOD CELLS” value [1] was 0 /100WBC. For the same molecule, the “PLATELET COUNT” value [1] was 1184.67 x10E3/uL, the “ALANINE AMINOTRANSFERASE” value [1] was 45.33 u/L and the ALBUMIN [1] was 4.3 G/DL. For the same molecule, the “ALKALINE PHOSPHATASE” value [1] was 388.83 u/L, the “ASPARTATE AMINOTRANSFERASE” value [1] was 84.83 u/L and the “BLOOD UREA NITROGEN” value [1] was 15.5 mg/dL. The “CARBON DIOXIDE” value [1] was 27 mmol/L, the CHLORIDE [1] was 101.8 MEQ/L and the CHOLESTEROL [1] was 76.67 mg/dL. For the same molecule, the “CREATINE PHOSPHOKINASE” value [1] was 301 u/L, the CREATININE [1] was 0.21 mg/dL and the GLUCOSE [1] was 168.83 mg/dL. For the same molecule, the “LACTATE DEHYDROGENASE” value [1] was 294.83 u/L, the LIPASE [1] was 9.8 u/L and the PHOSPHORUS [1] was 13.25 mg/dL. For the same molecule, the POTASSIUM [1] was 6.41 MEQ/L, the SODIUM [1] was 143.72 MEQ/L and the “TOTAL BILIRUBIN” value [1] was 0.22 mg/dL. For the same molecule, the “TOTAL PROTEIN” value [1] was 5.98 G/DL, the “URIC ACID” value [1] was 1.5 mg/dL and the “ABSOLUTE BASOPHIL” value [2] was 0 CELLS/uL. The “ABSOLUTE EOSINOPHIL” value [2] was 190.67 CELLS/uL, the “ABSOLUTE LYMPHOCYTE” value [2] was 12549.5 CELLS/uL and the “ABSOLUTE MONOCYTE” value [2] was 276 CELLS/uL. For the same molecule, the “ABSOLUTE SEGMENTED NEUTROPHIL” value [2] was 1067.17 CELLS/uL, the BASOPHIL [2] was 0% and the EOSINOPHIL [2] was 1.33%. The “ERYTHROCYTE COUNT” value [2] was 5.66 x10E6/uL, the HEMATOCRIT [2] was 35.92% and the HEMOGLOBIN [2] was 13.65 G/DL. The “LEUKOCYTE COUNT” value [2] was 14.08 x10E3/uL, the LYMPHOCYTE [2] was 89% and the “MEAN CORPUSCULAR HEMOGLOBIN” value [2] was 24.12 pg. The “MEAN CORPUSCULAR HEMOGLOBIN CONCENTRATION” value [2] was 38.03 G/DL, the “MEAN CORPUSCULAR VOLUME” value [2] was 63.47 fL and the MONOCYTE [2] was 2%. For the same molecule, the NEUTROPHIL [2] was 7.67%, the “NUCLEATED RED BLOOD CELLS” value [2] was 0.17 /100WBC and the “PLATELET COUNT” value [2] was 1251.67 x10E3/uL. For the same molecule, the “ALANINE AMINOTRANSFERASE” value [2] was 43.33 u/L, the ALBUMIN [2] was 4.22 G/DL and the “ALKALINE PHOSPHATASE” value [2] was 365.67 u/L. The “ASPARTATE AMINOTRANSFERASE” value [2] was 83.67 u/L, the “BLOOD UREA NITROGEN” value [2] was 18.17 mg/dL and the “CARBON DIOXIDE” value [2] was 28.67 mmol/L. For the same molecule, the CHLORIDE [2] was 103.5 MEQ/L, the CHOLESTEROL [2] was 71.5 mg/dL and the “CREATINE PHOSPHOKINASE” value [2] was 284.5 u/L. For the same molecule, the CREATININE [2] was 0.21 mg/dL, the GLUCOSE [2] was 161.67 mg/dL and the “LACTATE DEHYDROGENASE” value [2] was 259.67 u/L. It also gave an LIPASE [2] of 9.5 u/L, a PHOSPHORUS [2] of 12.45 mg/dL and a POTASSIUM [2] of 6.49 MEQ/L. For the same molecule, the SODIUM [2] was 144.25 MEQ/L, the “TOTAL BILIRUBIN” value [2] was 0.2 mg/dL and the “TOTAL PROTEIN” value [2] was 6.1 G/DL. For the same molecule, the “URIC ACID” value [2] was 1.73 mg/dL, the “ABSOLUTE BASOPHIL” value [3] was 0 CELLS/uL and the “ABSOLUTE EOSINOPHIL” value [3] was 0 CELLS/uL. The “ABSOLUTE LYMPHOCYTE” value [3] was 7799.67 CELLS/uL, the “ABSOLUTE MONOCYTE” value [3] was 242.67 CELLS/uL and the “ABSOLUTE SEGMENTED NEUTROPHIL” value [3] was 691 CELLS/uL. The BASOPHIL [3] was 0%, the EOSINOPHIL [3] was 0% and the “ERYTHROCYTE COUNT” value [3] was 5.44 x10E6/uL. The HEMATOCRIT [3] was 34.63%, the HEMOGLOBIN [3] was 12.8 G/DL and the “LEUKOCYTE COUNT” value [3] was 8.73 x10E3/uL. For the same molecule, the LYMPHOCYTE [3] was 89.33%, the “MEAN CORPUSCULAR HEMOGLOBIN” value [3] was 23.6 pg and the “MEAN CORPUSCULAR HEMOGLOBIN CONCENTRATION” value [3] was 36.97 G/DL. The “MEAN CORPUSCULAR VOLUME” value [3] was 63.73 fL, the MONOCYTE [3] was 2.67% and the NEUTROPHIL [3] was 8%. The “NUCLEATED RED BLOOD CELLS” value [3] was 0 /100WBC, the “PLATELET COUNT” value [3] was 1233.67 x10E3/uL and the “ALANINE AMINOTRANSFERASE” value [3] was 50 u/L. The ALBUMIN [3] was 4.33 G/DL, the “ALKALINE PHOSPHATASE” value [3] was 470.67 u/L and the “ASPARTATE AMINOTRANSFERASE” value [3] was 82 u/L. For the same molecule, the “BLOOD UREA NITROGEN” value [3] was 13.67 mg/dL, the “CARBON DIOXIDE” value [3] was 29.33 mmol/L and the CHLORIDE [3] was 101.5 MEQ/L. The CHOLESTEROL [3] was 90.33 mg/dL, the “CREATINE PHOSPHOKINASE” value [3] was 213.33 u/L and the CREATININE [3] was 0.21 mg/dL. The GLUCOSE [3] was 138.33 mg/dL, the “LACTATE DEHYDROGENASE” value [3] was 128.67 u/L and the LIPASE [3] was 9 u/L. It also gave a PHOSPHORUS [3] of 11.63 mg/dL, a POTASSIUM [3] of 6.14 MEQ/L and an SODIUM [3] of 146.7 MEQ/L. The “TOTAL BILIRUBIN” value [3] was 0.3 mg/dL, the “TOTAL PROTEIN” value [3] was 6.07 G/DL and the “URIC ACID” value [3] was 0.97 mg/dL.
